# According to PubChem BioAssay AID1508612:
# Experiment: passive permeability, PAMPA, ADME assay (AID 1508612)
# Details: pH 7.4, 30.0 min, 50.0 µM
row,Compound,Papp
1,CCCSc1nc(N[C@@H]2C[C@H]2c2ccc(F)c(F)c2)c2nnn([C@@H]3C[C@H](OCCO)[C@@H](O)[C@H]3O)c2n1,776 ×10⁻⁶ cm/s
2,COc1ccc(C)cc1NC(=O)c1cnc(-c2ccc(F)cc2)nc1-c1ccncc1,130 ×10⁻⁶ cm/s
3,Nc1ccc(-c2cccc3c(=O)cc(N4CCOCC4)oc23)cc1,65.7 ×10⁻⁶ cm/s
4,CC(C)(C)c1ccc(S(=O)(=O)c2cnc(SCC(=O)Nc3ccc(F)c(Cl)c3)[nH]c2=O)cc1,6.49 ×10⁻⁶ cm/s
5,COc1ccc2oc(NC3=NC(c4[nH]ncc4Cl)C4=C(CCCC4=O)N3)nc2c1 (configuration not stated),706 ×10⁻⁶ cm/s
6,COc1ccc(-c2csc(N3CCC(C(N)=O)CC3)n2)cc1,646 ×10⁻⁶ cm/s
7,CC(=O)c1c(C)[nH]c(C(=O)Nc2cccc([S+](=O)([O-])Nc3cccnc3)c2)c1C,16.5 ×10⁻⁶ cm/s
8,Nc1cc2nc3ccccc3oc-2cc1=O,106 ×10⁻⁶ cm/s
9,COc1cccc(CNc2ccc(S(=O)(=O)Nc3nc(C)cs3)cc2)c1O,128 ×10⁻⁶ cm/s
10,CCOC(=O)NNc1ccc(N(CC)CC(C)O)nn1 (configuration not stated),10.7 ×10⁻⁶ cm/s
11,CC(C)CN(CC(=O)N(CCCN1CCCC1=O)CC(N)=O)C(=O)CNCCc1ccccc1F,11.6 ×10⁻⁶ cm/s
12,C[C@@]1(c2ncncc2F)NC(=O)c2cc(-c3cn[nH]c3)ccc21,52.1 ×10⁻⁶ cm/s
13,CCC(CC)c1cc([C@H]2CN3CC[C@H]2C[C@@H]3CNC(C)=O)nc(-c2ccncc2)n1,994 ×10⁻⁶ cm/s
14,Nc1nc2c(s1)C(c1ccc(F)cc1F)CC(=O)N2 (configuration not stated),181 ×10⁻⁶ cm/s
15,Cc1cc(-c2nnc3n2CCCCC3)c(C)n1-c1ccc(Cl)cc1,> 1000 ×10⁻⁶ cm/s
16,CN(C)[C@@H]1CCN(c2cccc(Nc3nn4c(=O)c5ccccc5nc4s3)c2)C1,125 ×10⁻⁶ cm/s
17,Cc1cc(NS(=O)(=O)c2ccc(NC(=O)c3oc4ccccc4c3C)cc2)nc(C)n1,282 ×10⁻⁶ cm/s
18,O=C(/C=C/c1cn(CC(O)CN2CCCCCC2)c2ccccc12)c1ccc(Br)cc1 (configuration not stated),931 ×10⁻⁶ cm/s
19,COc1ccc(NC(=O)c2[nH]c(C)c(C(C)=O)c2C)cc1S(=O)(=O)Nc1ccc(C#N)cc1,35.7 ×10⁻⁶ cm/s
20,Cc1nn2c(c1-c1ccccc1-c1ccccc1)N(CCC(C)C)CCC2,532 ×10⁻⁶ cm/s
21,CS(=O)(=O)c1ccc(-c2csc(N3CCC(C(N)=O)CC3)n2)cc1,74 ×10⁻⁶ cm/s
22,COc1ccc(OC)c(Nc2c3c(nc4ccccc24)CCC3)c1,> 1000 ×10⁻⁶ cm/s

row,Compound,Papp
1,NC(=O)C1CCN(c2nccc(-c3ccc4c(c3)OCCCO4)n2)CC1,653 ×10⁻⁶ cm/s
2,C[C@@]1(O)[C@H](O)[C@@H](CO)O[C@H]1n1ccc(N)nc1=O,9.97 ×10⁻⁶ cm/s
3,Fc1ccc(CNc2ncnc3onc(-c4ccc(F)cc4)c23)cc1,> 1000 ×10⁻⁶ cm/s
4,CC(=O)Nc1nc(C)c(-c2ccc(Cl)c(S(=O)(=O)NCCO)c2)s1,12.1 ×10⁻⁶ cm/s
5,CCOc1ccc(NC(=O)CC2C(=O)N(c3ccc(F)cc3)C(=O)N2CCc2sccc2C)cc1 (configuration not stated),927 ×10⁻⁶ cm/s
6,CCN(c1ccccc1)S(=O)(=O)c1c(C)nc2scc(C)n2c1=O,615 ×10⁻⁶ cm/s
7,O=C1CCCC2=C1C1(CCCC1)N=C(Nc1nc3ccccc3o1)N2,294 ×10⁻⁶ cm/s
8,COc1ccc2c3c([nH]c2c1)C1CC2C(CC(O)C(OC)C2CO)CN1CC3 (configuration not stated),3.2 ×10⁻⁶ cm/s
9,c1cc(-c2cc(-c3ccncc3)c3cncn3c2)c2[nH]ccc2c1,157 ×10⁻⁶ cm/s
10,C[S+](=O)([O-])c1ccc(-c2nc(C(=O)N3CCOCC3)n3ccncc23)cc1,8.31 ×10⁻⁶ cm/s
11,Cc1cc(N2CCN(c3ccccc3)CC2)nc(-n2nc(C)cc2C)n1,> 1000 ×10⁻⁶ cm/s
12,COc1cc2c(c(OC)c1OC)-c1ccc(OC)c(=O)cc1[C@@H](NC(C)=O)CC2,1.93 ×10⁻⁶ cm/s
13,COc1cc(C2c3cc(O)c(OC)cc3CC3C(=O)OCC32)ccc1O (configuration not stated),129 ×10⁻⁶ cm/s
14,CC(=O)c1c(C)[nH]c(C(=O)Nc2ccc(OCCCN(C)C)c(S(=O)(=O)Nc3ccc(Br)cc3)c2)c1C,74.7 ×10⁻⁶ cm/s
15,COc1ncccc1-c1cc2c(ccn2CC2CCN([S+](C)(=O)[O-])CC2)c(N2CCOCC2)n1,> 1000 ×10⁻⁶ cm/s
16,CCC(CC)c1cc([C@H]2CN3CC[C@H]2C[C@@H]3CNC(=O)Cc2cccs2)nc(-c2ccncc2)n1,448 ×10⁻⁶ cm/s
17,CNC(=O)c1ccccc1Nc1nc(Nc2ccc(N3CCOCC3)cc2OC)ncc1Cl,> 1000 ×10⁻⁶ cm/s
18,O=C(NC1CCCc2c1[nH]c1c(Cl)cccc21)c1ccc2c(c1)OCO2 (configuration not stated),51 ×10⁻⁶ cm/s
19,CCOC(=O)Nc1ccc(NCc2ccc(F)cc2)nc1N,68.3 ×10⁻⁶ cm/s
20,C=CCc1ccc(O)c(-c2ccc(O)c(CC=C)c2)c1,> 1000 ×10⁻⁶ cm/s
21,COc1ccc(CN(C2CCCCC2C)S(=O)(=O)c2ccc(S(=O)(=O)N(C)C)cc2)cc1OC (configuration not stated),18.8 ×10⁻⁶ cm/s
22,Cc1ccc(NS(=O)(=O)c2c(C)[nH]c(C)c2C(=O)N2CCCC2)cc1Cl,387 ×10⁻⁶ cm/s

row,Compound,Papp
1,CCOc1ccc(C2c3c(oc4ccc(C)cc4c3=O)C(=O)N2CCCN(C)C)cc1 (configuration not stated),516 ×10⁻⁶ cm/s
2,CC(C)(C)n1nc(-c2ccc(Cl)cc2)c2c(N)ncnc21,> 1000 ×10⁻⁶ cm/s
3,Oc1c(C(Nc2nccs2)c2ccc(C(F)(F)F)cc2)ccc2cccnc12 (configuration not stated),41.6 ×10⁻⁶ cm/s
4,COc1ccc(-n2nc(C3CCN(C(=O)C4CC4)CC3)[nH]c2=O)cc1,148 ×10⁻⁶ cm/s
5,NC(=O)C1CCN(c2nc(-c3ccc4c(c3)OCCO4)cs2)CC1,669 ×10⁻⁶ cm/s
6,CCC[C@@H]1CN(C(=O)c2ccc(-c3ccc(C)o3)cc2)C[C@H]1NC(C)=O,> 1000 ×10⁻⁶ cm/s
7,Clc1ccc(-c2nnc(C3CCCCC3)o2)cc1,> 1000 ×10⁻⁶ cm/s
8,O=C1NCc2cc(-c3cc4c(ccn4Cc4ccncc4)c(N4CCOCC4)n3)ccc21,189 ×10⁻⁶ cm/s
9,Cc1ccc(S(=O)(=O)Nc2cnccc2C(=O)Nc2ccc(-c3nn[nH]n3)cc2)cc1,1.4 ×10⁻⁶ cm/s
10,Cn1cnc(-c2nccc3c(=O)[nH]c(OCCCC(F)(F)F)nc23)c1,109 ×10⁻⁶ cm/s
11,CCN1CCc2c(sc(NC(=O)Nc3ccc(Cl)c(Cl)c3)c2C(N)=O)C1,435 ×10⁻⁶ cm/s
12,CCOc1ccc(CCNC(=O)c2cc3ccccc3n2Cc2cccc(C)n2)cc1OCC,> 1000 ×10⁻⁶ cm/s
13,CN1CCN(C2=Nc3cc(Cl)ccc3Nc3ccccc32)CC1,> 1000 ×10⁻⁶ cm/s
14,CCCCN(C)C(=O)c1c(C)sc2ccn(CCC)c(=O)c12,124 ×10⁻⁶ cm/s
15,CCS(=O)(=O)N1CC(CC#N)(n2cc(-c3ncnc4[nH]ccc34)cn2)C1,11.1 ×10⁻⁶ cm/s
16,C=Cc1ccc(Cn2c(C(=O)O)c(CNC3CCCCC3)c3ccc(OC)cc32)cc1,771 ×10⁻⁶ cm/s
17,O=c1[nH]cnc2nc[nH]c12,< 1 ×10⁻⁶ cm/s
18,COc1cccc(CNc2ccc(S(=O)(=O)Nc3nc4ccccc4[nH]3)cc2)c1O,30.8 ×10⁻⁶ cm/s
19,NC(=O)C1CCN(c2ncc(-c3cccc(N4CCOCC4)c3)s2)CC1,374 ×10⁻⁶ cm/s
20,Cc1c(CN(C)c2cc(C3CC(O)C3)nc(N)n2)[nH]c2ccccc12 (configuration not stated),< 1 ×10⁻⁶ cm/s

# Other lines, results leading:
row,Papp,Compound
1,512 ×10⁻⁶ cm/s,CC[S+](=O)([O-])Nc1ccccc1C(=O)Nc1nc(-c2ccccc2)cs1
2,> 1000 ×10⁻⁶ cm/s,Cc1[nH]c2ccccc2c1CN1CCN(c2ccccn2)CC1
3,877 ×10⁻⁶ cm/s,Cc1ccc(C(N)=O)cc1Nc1nccc(-c2cn(C(C)C)c3cnccc23)n1
4,> 1000 ×10⁻⁶ cm/s,Cc1cnc(-c2ccccc2C(C)(C)C)nc1NCc1ccc(-n2ccnn2)cc1
5,> 1000 ×10⁻⁶ cm/s,CCN1CCN(CCCOc2ccc(-c3ccccc3)cc2)CC1
6,3.4 ×10⁻⁶ cm/s,Cc1ccc(S(=O)(=O)n2cc(C(=O)Nc3nc(-c4ccccc4)cs3)c3ccccc32)cc1
7,76 ×10⁻⁶ cm/s,OCc1cccc(-c2cc(-c3cccnc3)c3cncn3c2)c1
8,297 ×10⁻⁶ cm/s,CCOc1ccc(N2CC(c3nc(-c4ccccn4)no3)CC2=O)cc1 (configuration not stated)
9,39.9 ×10⁻⁶ cm/s,CC#CC(=O)N1CCC[C@H]1c1nc(-c2ccc(C(=O)Nc3ccccn3)cc2)c2c(N)nccn12
10,> 1000 ×10⁻⁶ cm/s,Cc1cc(F)ccc1S(=O)(=O)Nc1cnccc1C(=O)Nc1nc(-c2ccccc2)cs1
11,1.7 ×10⁻⁶ cm/s,O=C1CCCc2cc(S(=O)(=O)Nc3cnccc3C(=O)Nc3nc(-c4ccccc4)cs3)ccc2N1
12,> 1000 ×10⁻⁶ cm/s,CCOC(=O)C1=C(CN(CC)Cc2ccccc2)NC(=O)NC1c1ccc(OC(C)C)cc1 (configuration not stated)
13,153 ×10⁻⁶ cm/s,COc1ccc2[nH]cc(CCNC(=O)c3cnn(-c4ccc(C)cc4)c3C3CCN(C(=O)OC(C)(C)C)CC3)c2c1
14,288 ×10⁻⁶ cm/s,CC(=O)N1CCC(NC(=O)c2nc(-c3ccccc3)cc3[nH]ccc23)CC1
15,487 ×10⁻⁶ cm/s,O=S(=O)(Nc1ccccc1)c1ccc(NCc2cccc(Cl)c2O)cc1
16,758 ×10⁻⁶ cm/s,O=C(NC1CC1)c1ccc(CSCc2ccccc2Cl)o1
17,1.67 ×10⁻⁶ cm/s,O=C(Cc1ccccc1)Nc1ccc(S(=O)(=O)Nc2nccs2)cc1
18,< 1 ×10⁻⁶ cm/s,Cc1ccc(S(=O)(=O)Nc2cccc(C(=O)Nc3nc(-c4ccccc4)cs3)c2Cl)cc1
19,899 ×10⁻⁶ cm/s,COc1cccc(OC)c1C(=O)Nc1ccccc1C(=O)Nc1cccc(C(F)(F)F)c1
20,400 ×10⁻⁶ cm/s,O=C(O)c1ccc(-c2c[nH]c3ncc(-c4ccccc4)cc23)cc1C1CCCC1
21,29.4 ×10⁻⁶ cm/s,Cc1cc(N=Nc2ccc(S(=O)(=O)Nc3ccccn3)cc2)c(N)cc1O
22,968 ×10⁻⁶ cm/s,CCOc1ccccc1N(CC(=O)Nc1cc(OC)ccc1OC)S(=O)(=O)c1ccccc1

row,Papp,Compound
1,> 1000 ×10⁻⁶ cm/s,c1ccc2[nH]c(Nc3nc(-c4ccncc4)nc4ccccc34)nc2c1
2,226 ×10⁻⁶ cm/s,FC(F)(F)Oc1cccc(Nc2nc(-c3ccncc3)nc3ccccc23)c1
3,3.96 ×10⁻⁶ cm/s,O=C1Nc2ccccc2/C1=C\c1ccc(C(=O)O)cc1
4,> 1000 ×10⁻⁶ cm/s,CC(C)N(CCC(=O)c1ccc2ccccc2c1)Cc1ccccc1
5,34.6 ×10⁻⁶ cm/s,Cc1ccc(C)n1-c1cccc(C(=O)O)c1
6,525 ×10⁻⁶ cm/s,CCc1ccc(NC(=O)c2cc3ncccn3n2)cc1
7,587 ×10⁻⁶ cm/s,O=C(NC1CCCc2c1cnn2-c1ccc(O)cc1)c1ccccn1 (configuration not stated)
8,94.2 ×10⁻⁶ cm/s,CN1C(=O)c2ccccc2[S@](=O)c2ccc(C(=O)NCCN3CCCC3)cc21
9,974 ×10⁻⁶ cm/s,O=C(O)c1ccc(O)c2ncc(N3CCCN(CCc4cccc5ccccc45)CC3)cc12
10,253 ×10⁻⁶ cm/s,CC(=O)N1CCN(c2ccc(OCc3nn(C)c(C)c3-c3cccc4c(CCCOc5cccc6ccccc56)c(C(=O)O)n(Cc5cccnc5)c34)cc2)CC1
11,355 ×10⁻⁶ cm/s,CS(=O)(=O)Nc1cccc(-c2nccc(-n3ccnc3)n2)c1
12,< 1 ×10⁻⁶ cm/s,O=C(O)c1ccnc(-c2cc(C(=O)NCCc3ccccc3)ccn2)c1
13,> 1000 ×10⁻⁶ cm/s,Cc1cccc(CN2CCN(c3ccccn3)CC2)c1
14,779 ×10⁻⁶ cm/s,CC(=O)c1c(C)n(-c2ccccc2)c2ccc(O)cc12
15,4 ×10⁻⁶ cm/s,O=C(O)c1ccnc2cc(-c3nc4ccccc4n3CCN3CCCCC3)sc12
16,597 ×10⁻⁶ cm/s,Cc1cc2c(C(N)=O)cccc2n1-c1nc2c(c(NCc3ccccc3)n1)COCC2
17,146 ×10⁻⁶ cm/s,CCNC(=O)c1ccc(-c2ccc3ncnc(NCC4CCCO4)c3c2)o1 (configuration not stated)
18,> 1000 ×10⁻⁶ cm/s,O=C(c1nc(-c2ccc(Cl)nc2)c2ccccn12)N1CCCC1
19,> 1000 ×10⁻⁶ cm/s,CCOc1ccc(CCNC(=O)c2cc3sccc3n2CCN2CCN(C)CC2)cc1OCC
20,9.67 ×10⁻⁶ cm/s,COC(=O)CNC(=O)c1nc(-c2ccc([S+](C)(=O)[O-])cc2)c2cnccn12
21,545 ×10⁻⁶ cm/s,CN1CCN(C(=O)c2ccc3cc(CCNc4ncnc5ccc(C#N)cc45)ccc3c2)CC1
